Experimental data taken from US9062043B2, “Fused tricyclic compounds as serine-threonine protein kinase and PARP modulators” (SENHWA BIOSCIENCES, INC., priority 2006, dated 2015).

How the values were obtained:
Format in all cases: cell-based
[1] = test system: MiaPaca human pancreatic carcinoma cells; test: Cell proliferation assay, Alamar Blue, MiaPaca
Protocol: (§1) A representative cell-proliferation assay protocol using Alamar Blue dye (stored at 4° C., use 20 ul per well) is described hereafter.
(§2) c. Plate 4,000-5,000 cells per well in 100 μl of medium and seed into a 96-well plate according to the following plate layout. Add cell culture medium only to wells B10 to B12. Wells B1 to B9 have cells but no compound added.
(§3) d. Add 100 μl of 2× drug dilution to each well in a concentration shown in the plate layout above. At the same time, add 100 μl of media into the control wells (wells B10 to B12). Total volume is 200 μl/well.
(§4) e. Incubate four (4) days at 37° C., 5% CO2 in a humidified incubator.
(§5) f. Add 20 μl Alamar Blue reagent to each well.
(§6) g. Incubate for four (4) hours at 37° C., 5% CO2 in a humidified incubator.
(§7) h. Record fluorescence at an excitation wavelength of 544 nm and emission wavelength of 590 nm using a microplate reader.
(§8) In the assays, cells are cultured with a test compound for approximately four days, the dye then is added to the cells and fluorescence of […] dye is detected after approximately four hours. Different types of cells can be utilized in the assays (e.g., HCT-116 human colorectal carcinoma cells, PC-3 human prostatic cancer cells and MiaPaca human pancreatic carcinoma cells). Anti-proliferative effects of representative compounds are provided hereafter.

BxPC3 = test: Cell proliferation assay, Alamar Blue, BxPC3; conditions: Homo sapiens, BXPC-3; Table 19b
Protocol: as §2, §3, §4, §5, §6, §7, §8

PanC1 = test: Cell proliferation assay, Alamar Blue, PanC1; conditions: Homo sapiens, PANC-1; Table 19b; read-out: IC50 PanC1
Protocol: as §1, §2, §3, §4, §5, §6, §7, §8

[2] = test system: HCT-116 human colorectal carcinoma cells; test: Cell proliferation assay, Alamar Blue, HCT-116;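 also: cells exposed to compound for about 4 days, then Alamar Blue added and fluorescence read after about 4 h, medium-only wells as control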
[3] = test system: PC-3 human prostatic cancer cells; test: Cell proliferation assay, Alamar Blue, PC-3; conditions: Table 18, read-out: IC50 PC3
Protocol: as §1, §2, §3, §4, §5, §6, §7, §8

Jurkat = test: Cell proliferation assay, Alamar Blue, Jurkat; conditions: Homo sapiens, Table 18;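 also: cells exposed to compound for about 4 days at 37 °C, then Alamar Blue added and fluorescence read after about 4 h, controls given medium without drug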
Hs578T = test: Cell proliferation assay, Alamar Blue, Hs578T; conditions: Homo sapiens, Hs-578T; Table 18
[4] = HCT-116, Table 16, first HCT-116 column
[5] = HCT-116, Table 16, second HCT-116 column

Row | Compound | IC50 ([1]; MIA PaCa-2, Table 18) [µM] | IC50 ([1]; MIA PaCa-2, Table 16) [µM] | IC50 [2, 5] [µM] | other results
1 | CN(C)CCNc1nc2cc(C(=O)O)ccc2c2cnc(NC3CC3)nc12 [drawing 1100] | > 50 | – | – | –
2 | O=C(O)c1ccc2c(c1)nc(NCc1ccccc1)c1nc(NC3CC3)ncc12 [drawing 1277] | – | – | – | IC50 (BxPC3): 22.3 µM; IC50 (PanC1): 19.1 µM
3 | O=C(O)c1ccc2c(c1)nc(Nc1ccc(F)c(Cl)c1)c1ccsc12 | – | > 10 | – | IC50 [2, 4]: > 10 µM
4 | Fc1cccc(Nc2nc3cc(-c4nnn[nH]4)ccc3c3cnccc23)c1 | – | – | – | IC50 [3]: > 50 µM
5 | CN(C)C(=O)c1cccc(Nc2nc3cc(-c4nnn[nH]4)ccc3c3sccc23)c1 | – | > 10 | > 10 | –
6 | CCOc1ncc2c(n1)c(NC1CC1)nc1cc(C(=O)O)ccc12 [drawing 1073] | > 50 | – | – | IC50 ([2]; HCT-116, Table 18): > 10 µM
7 | CC1CCCCN1CCCNc1ncc2c(n1)c(Nc1ccc(F)c(Cl)c1)nc1cc(C(=O)O)ccc12 (stereo not drawn) [drawing 1087] | 3.16 | – | – | IC50 (Jurkat): 2.86 µM
8 | Fc1cc(F)cc(Nc2nc3cc(-c4nnn[nH]4)ccc3c3sccc23)c1 | – | > 10 | > 10 | –
9 | O=C(O)c1ccc2c(c1)nc(Nc1ccc3cc[nH]c3c1)c1ccsc12 | – | > 10 | > 10 | –
10 | COc1cccc(Nc2nc3cc(C(=O)O)ccc3c3sccc23)c1 | – | > 10 | – | IC50 [2, 4]: > 10 µM
11 | O=C(O)c1ccc2c(c1)nc(Nc1cncc(C3CC3)c1)c1ncncc12 | – | – | – | IC50 (Jurkat): > 50 µM; IC50 ([2]; HCT-116, Table 18): > 10 µM
12 | O=C(O)c1cc(F)cc(Nc2nc3cc(C(=O)O)ccc3c3sccc23)c1 | – | > 10 | > 10 | –
13 | O=C(O)c1ccc2c(c1)nc(NCc1ccccc1)c1nc(NC3CC3)ncc12 [drawing 1084] | 12.9 | – | – | IC50 ([2]; HCT-116, Table 18): > 10 µM
14 | O=C(O)c1ccc2c(c1)nc(NCc1ccccc1)c1ccncc12 [drawing 1020] | 31.2 | – | – | IC50 ([2]; HCT-116, Table 18): > 10 µM
15 | O=C(O)c1ccc2c(c1)nc(Nc1cc(F)ccc1F)c1ccsc12 | – | > 10 | > 10 | –
16 | COC(=O)CNC(=O)c1cccc(Nc2nc3cc(-c4nnn[nH]4)ccc3c3sccc23)c1 | – | > 10 | > 10 | –
17 | O=C(O)c1ccc2c(c1)nc(NC1CC1)c1nc(SCc3ccccc3Cl)ncc12 [drawing 1072] | > 50 | – | – | IC50 (Jurkat): 29.3 µM
18 | O=C(O)c1ccc2c(c1)nc(Nc1ccc3[nH]ccc3c1)c1ccsc12 | – | > 10 | > 10 | –
19 | O=C(O)c1ccc2c(c1)nc(Nc1cccc(S(=O)(=O)NC3CC3)c1)c1ccsc12 | – | > 10 | > 10 | –
20 | Cc1cc(CNC(=O)c2cccc(Nc3nc4cc(-c5nnn[nH]5)ccc4c4sccc34)c2)no1 | – | > 10 | > 10 | –
21 | C#Cc1cccc(Nc2nc3cc(C(=O)O)ccc3c3cnc(NCC4CC4)nc23)c1 [drawing 1064] | 0.48 | – | – | IC50 (Jurkat): 0.42 µM; IC50 ([2]; HCT-116, Table 18): > 10 µM
22 | Cc1cccc(Nc2nc3cc(C(=O)O)ccc3c3cncnc23)c1 | 8.33 | – | – | IC50 (Jurkat): 3.45 µM; IC50 ([2]; HCT-116, Table 18): > 10 µM

Row | Compound | IC50 ([1]; MIA PaCa-2, Table 18) [µM] | IC50 ([1]; MIA PaCa-2, Table 16) [µM] | IC50 [2, 5] [µM] | other results
23 | O=C(O)c1ccc2c(c1)nc(NC1CC1)c1nc(NC3CC3)ncc12 [drawing 1074] | 2.83 | – | – | IC50 (Jurkat): 3.45 µM; IC50 ([2]; HCT-116, Table 18): > 10 µM
24 | O=C(O)c1ccc2c(c1)nc(Nc1cccc(Cl)c1F)c1ccsc12 | – | > 10 | > 10 | –
25 | O=C(O)c1ccc2c(c1)nc(NCCCc1ccccc1)c1ccncc12 [drawing 1023] | > 10 | – | – | IC50 (Hs578T): 29.9 µM; IC50 ([2]; HCT-116, Table 18): > 10 µM; IC50 [3]: 5.25 µM
26 | O=C(NCc1cccnc1)c1cccc(Nc2nc3cc(-c4nnn[nH]4)ccc3c3sccc23)c1 | – | > 10 | > 10 | –
27 | O=C(O)c1ccc2c(c1)nc(Nc1cc(F)cc(C(F)(F)F)c1)c1ccsc12 | – | > 10 | > 10 | –
28 | O=C(O)c1ccc2c(c1)nc(NCc1cccnc1)c1nc(NC3CC3)ncc12 [drawing 1083] | 13.8 | – | – | IC50 ([2]; HCT-116, Table 18): > 10 µM
29 | O=C(O)c1ccc2c(c1)nc(Nc1cccc(C(F)(F)F)c1)c1ccsc12 | – | > 10 | > 10 | –
30 | Brc1cccc(Nc2nc3cc(-c4nnn[nH]4)ccc3c3sccc23)c1 | – | > 10 | > 10 | –
31 | O=C(O)c1ccc2c(c1)nc(Nc1ccc(F)c(F)c1)c1ccsc12 | – | > 10 | 0.83 | –
32 | C#Cc1cccc(Nc2nc3cc(-c4nnn[nH]4)ccc3c3sccc23)c1 | – | > 10 | > 10 | –
33 | CNc1ncc2c(n1)c(Nc1cccc(Cl)c1)nc1cc(C(=O)O)ccc12 | 1.75 | – | – | IC50 (Jurkat): 1.09 µM; IC50 ([2]; HCT-116, Table 18): > 10 µM
34 | CCOc1cccc(Nc2nc3cc(C(=O)O)ccc3c3sccc23)c1 | – | > 10 | > 10 | –
35 | O=C(O)c1ccc2c(c1)nc(Nc1cc(F)cc(Cl)c1)c1ccsc12 | – | > 10 | > 10 | –
36 | C#Cc1cccc(Nc2nc3cc(C(=O)O)ccc3c3cnc(NCC4CCCO4)nc23)c1 (stereo not drawn) [drawing 1063] | 0.45 | – | – | IC50 (Jurkat): 2.04 µM; IC50 ([2]; HCT-116, Table 18): > 10 µM
37 | Fc1cc(Nc2nc3cc(-c4nnn[nH]4)ccc3c3cnccc23)ccc1Cl | – | – | – | IC50 [3]: > 50 µM
38 | O=C(O)c1ccc2c(c1)nc(NC1CC1)c1nc(Nc3ccccc3)ncc12 [drawing 1076] | 2.44 | – | – | IC50 (Jurkat): 4.6 µM; IC50 ([2]; HCT-116, Table 18): > 10 µM
39 | O=C(O)c1ccc2c(c1)nc(Nc1cccc(F)c1F)c1ccsc12 | – | > 10 | > 10 | –
40 | NS(=O)(=O)c1cccc(Nc2nc3cc(-c4nnn[nH]4)ccc3c3sccc23)c1 | – | > 10 | > 10 | –
41 | O=C(O)c1ccc2c(c1)nc(Nc1cccc(I)c1)c1ccsc12 | – | 9.44 | > 10 | –
42 | N#Cc1cc(F)cc(Nc2nc3cc(C(=O)O)ccc3c3sccc23)c1 | – | > 10 | > 10 | –
43 | Cc1cc(Nc2ncc3c(n2)c(Nc2ccc(F)c(Cl)c2)nc2cc(C(=O)O)ccc23)[nH]n1 [drawing 1093] | 18.2 | – | – | IC50 ([2]; HCT-116, Table 18): > 10 µM
44 | CN(C)c1ncc2c(n1)c(Nc1cccc(Cl)c1)nc1cc(C(=O)O)ccc12 | > 50 | – | – | –

Row | Compound | IC50 ([1]; MIA PaCa-2, Table 18) [µM] | IC50 ([1]; MIA PaCa-2, Table 16) [µM] | IC50 [2, 5] [µM] | other results
45 | COC(=O)c1ccc2c(c1)nc(NC1CC1)c1nc(SCc3ccccc3Cl)ncc12 [drawing 1069] | 32.4 | – | – | IC50 (Jurkat): 4.67 µM
46 | O=C(O)c1ccc2c(c1)nc(Nc1cccc(-c3ccccc3)c1)c1ccsc12 | – | > 10 | – | –
47 | CNC(=O)Cc1cccc(Nc2nc3cc(C(=O)O)ccc3c3sccc23)c1 | – | > 10 | > 10 | –
48 | CN(C)CCNC(=O)c1cccc(Nc2nc3cc(-c4nnn[nH]4)ccc3c3sccc23)c1 | – | > 10 | > 10 | –
49 | Cc1cccc(Nc2nc3cc(C(=O)O)ccc3c3sccc23)c1 | – | > 10 | > 10 | –
50 | O=C(O)c1ccc2c(c1)nc(NCCc1cccc(Cl)c1)c1ccncc12 [drawing 1021] | > 10 | – | – | IC50 (Hs578T): 25 µM; IC50 ([2]; HCT-116, Table 18): > 10 µM; IC50 [3]: 46.6 µM
51 | Fc1cc(Cl)cc(Nc2nc3cc(-c4nnn[nH]4)ccc3c3sccc23)c1 | – | > 10 | > 10 | –
52 | O=C(O)c1ccc2c(c1)nc(NC1CC1)c1ccncc12 [drawing 1097] | 26.5 | – | – | IC50 ([2]; HCT-116, Table 18): > 10 µM
53 | O=C(O)c1ccc2c(c1)nc(NC1CC1)c1nc(NCc3ccccc3)ncc12 [drawing 1075] | 14.7 | – | – | IC50 (Jurkat): 8.82 µM; IC50 ([2]; HCT-116, Table 18): > 10 µM
54 | CC(C)(C)OC(=O)CCNC(=O)c1cccc(Nc2nc3cc(-c4nnn[nH]4)ccc3c3sccc23)c1 | – | > 10 | – | –
55 | O=C(O)c1ccc2c(c1)nc(N1CCOCC1)c1nc(NC3CC3)ncc12 [drawing 1085] | > 50 | – | – | IC50 (Jurkat): 3.67 µM
56 | O=C(c1cccc(Nc2nc3cc(-c4nnn[nH]4)ccc3c3sccc23)c1)N1CCOCC1 | – | > 10 | > 10 | –
57 | CCCNc1ncc2c(n1)c(NC1CC1)nc1cc(C(=O)O)ccc12 [drawing 1103] | 4.65 | – | – | IC50 (Jurkat): 7.49 µM; IC50 ([2]; HCT-116, Table 18): > 10 µM
58 | COCCNC(=O)c1cccc(Nc2nc3cc(-c4nnn[nH]4)ccc3c3sccc23)c1 | – | > 10 | > 10 | –
59 | O=C(O)c1ccc2c(c1)nc(Nc1cccc(Br)c1)c1ccsc12 | – | > 10 | > 10 | –
60 | CCc1cccc(Nc2nc3cc(C(=O)O)ccc3c3sccc23)c1 | – | > 10 | > 10 | –
61 | COC(=O)c1ccc2c(c1)nc(NC1CC1)c1nc(SC)ncc12 [drawing 1099] | > 50 | – | – | –
62 | CNS(=O)(=O)c1cccc(Nc2nc3cc(C(=O)O)ccc3c3sccc23)c1 | – | > 10 | > 10 | –
63 | O=C(O)c1ccc2c(c1)nc(NCCc1cccc(F)c1)c1ccncc12 [drawing 1022] | > 10 | – | – | IC50 (Hs578T): 24.6 µM; IC50 ([2]; HCT-116, Table 18): > 10 µM; IC50 [3]: 27 µM
64 | Nc1ncc2c(n1)c(NC1CC1)nc1cc(C(=O)O)ccc12 [drawing 1102] | > 50 | – | – | IC50 ([2]; HCT-116, Table 18): > 10 µM
65 | O=C(O)c1cccc(Nc2nc3cc(-c4nnn[nH]4)ccc3c3sccc23)c1 | – | > 10 | – | –
66 | CC(=O)N1CCN(C(=O)c2cccc(Nc3nc4cc(-c5nnn[nH]5)ccc4c4sccc34)c2)CC1 | – | > 10 | > 10 | –
